This note sets out measurements from paper PMC6265302, “Widespread bacterial lysine degradation proceeding via glutarate and L-2-hydroxyglutarate” (Nature Communications, 2018).

The target of test [1] is T1, CsiD (Escherichia coli, UniProt P76621).
T1 construct: gene glaH; full ORF, N-terminal 6xHis tag (pET28a), expressed in E. coli BL21(DE3); Fe(II); homotetramer
T1 sequence (P76621 1-325): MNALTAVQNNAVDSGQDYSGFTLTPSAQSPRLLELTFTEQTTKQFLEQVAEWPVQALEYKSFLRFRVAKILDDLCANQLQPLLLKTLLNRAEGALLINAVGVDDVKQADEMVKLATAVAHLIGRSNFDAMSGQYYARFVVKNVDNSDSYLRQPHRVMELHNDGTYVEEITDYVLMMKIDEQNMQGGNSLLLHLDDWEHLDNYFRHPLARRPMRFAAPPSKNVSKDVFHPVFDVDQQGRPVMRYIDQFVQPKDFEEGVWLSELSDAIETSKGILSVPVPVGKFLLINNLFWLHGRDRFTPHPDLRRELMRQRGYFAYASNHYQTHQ
The test is described as follows: CsiD activity assay, product inhibition. The format is biochemical. As to conditions: reaction product.

For test [2], the target named is T2, CsiR (Escherichia coli, UniProt P37338).
T2 construct: gene glaR; full ORF, N-terminal 6xHis tag (pET28a), expressed in E. coli BL21(DE3)
T2 sequence (P37338 1-220): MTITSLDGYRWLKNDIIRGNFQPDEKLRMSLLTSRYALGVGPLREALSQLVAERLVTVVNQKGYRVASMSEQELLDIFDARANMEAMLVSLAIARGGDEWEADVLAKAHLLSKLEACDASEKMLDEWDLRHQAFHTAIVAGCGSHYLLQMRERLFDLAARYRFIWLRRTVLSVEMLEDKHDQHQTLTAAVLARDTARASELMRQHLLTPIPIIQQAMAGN
The test is described as follows: filter binding assay with […]-labelled csiD promoter DNA. The following applies: 1 mM ligand, Tris-HCl pH 7.6, 5 mM MgCl2; allosteric relief of DNA binding.

For the compound `O=C(O)CC[C@H](O)C(=O)O` [L-2-hydroxyglutarate], the weak inhibition result in test [1] is “We did observe weak inhibition of CsiD by its product L2HG”.
Turning to `O=C(O)CCCC(=O)O` [glutarate], the “reduced DNA binding at 1 mM” value in test [2] is “repressive effect at the csiD promoter site is specifically relieved upon GA binding”.
